Target: human PDE1B enzyme (Homo sapiens (Human), UniProt Q01064)
Assay: IMAP TR-FRET PDE1B enzymatic assay
Assay type: biochemical
Conditions: negative log of half-maximal molar inhibitory concentration; 200 nM FAM-cAMP; values given as bins
Summary of the method: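 Full-length GST-tagged human PDE1B (250 pg/well) in IMAP BSA buffer with 10 U/ml calmodulin and 2.5 mM CaCl2; compound pre-incubated 5 min at room temperature, then 200 nM (final) FAM-cAMP for 30 min. IMAP binding reagent/Tb added, 1 h; TR-FRET 520/490 ratio read. IC50 from sigmoidal dose-response fit.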

Row | Compound | PDE1b (pIC50)
1 | Cc1oc2ncnc(NC3(C)CC3)c2c1C(=O)N1CCC(c2ccc(C(F)F)cc2)C1 (stereo not shown) [Example 131, 5-{3-[4-(Difluoromethyl)phenyl]pyrrolidine-1-carbonyl}-6-methyl-N-(1-methylcyclopropyl)furo[2,3-d]pyrimidin-4-amine] | >8
2 | Cc1oc2ncnc(NC3(C)CC3)c2c1C(=O)N1CCC(c2cc(C(F)(F)F)ccn2)C1 (stereo not shown) [Example 802, 6-Methyl-N-(1-methylcyclopropyl)-5-f{3-[4-(trifluoromethyl)pyridin-2-yl]pyrrolidine-1-carbonyl}furo[2,3-d]pyrimidin-4-amine] | >8
3 | COc1ccc(CNC(=O)c2c(C)oc3ncnc(NC4(C)CC4)c23)c(F)c1F [Example 185, N-[(2,3-Difluoro-4-methoxyphenyl)methyl]-6-methyl-4-[(1-methylcyclopropyl)amino]furo[2,3-d]pyrimidine-5-carboxamide] | >8
4 | Cc1oc2ncnc(NC3(C)CC3)c2c1C(=O)N1CCC(c2ccc(C(N)=O)cc2)CC1 [Example 382, 4-(1-{6-Methyl-4-[(1-methylcyclopropyl)amino]furo[2,3-d]pyrimidine-5-carbonyl}piperidin-4-yl)benzamide] | >8
5 | CCOc1ncnc2c1CCN(C(=O)c1c(C)oc3ncnc(NC4(C)CC4)c13)C2 [Example 25, 5-{4-Ethoxy-5H,6H,7H,8H-pyrido[3,4-d]pyrimidine-7-carbonyl}-6-methyl-N-(1-methylcyclopropyl)furo[2,3-d]pyrimidin-4-amine] | >8
6 | Cc1oc2ncnc(NC3(C)CC3)c2c1C(=O)N1CC(c2cccc(F)n2)C1 [Example 354, 5-[3-(6-Fluoropyridin-2-yl)azetidine-1-carbonyl]-6-methyl-N-(1-methylcyclopropyl)furo[2,3-d]pyrimidin-4-amine] | >8
7 | COc1ncc(C2=CCN(C(=O)c3c(C)oc4ncnc(NC5(C)CC5)c34)CC2)cc1F [Example 13, 5-[4-(5-Fluoro-6-methoxypyridin-3-yl)-1,2,3,6-tetrahydropyridine-1-carbonyl]-6-methyl-N-(1-methylcyclopropyl)furo[2,3-d]pyrimidin-4-amine] | >8
8 | COc1ncc(CNC(=O)c2c(C)oc3ncnc(NC4(C)CC4)c23)cn1 [Example 698, N-[(2-Methoxypyrimidin-5-yl)methyl]-6-methyl-4-[(1-methylcyclopropyl)amino]furo[2,3-d]pyrimidine-5-carboxamide] | >8
9 | Cc1nc(C2CCN(C(=O)c3c(C)oc4ncnc(NC5(C)CC5)c34)C2)ncc1F (stereo not shown) [Example 800, 5-[3-(5-Fluoro-4-methylpyrimidin-2-yl)pyrrolidine-1-carbonyl]-6-methyl-N-(1-methylcyclopropyl)furo[2,3-d]pyrimidin-4-amine] | >8

Same assay, conditions: negative log of half-maximal molar inhibitory concentration; 200 nM FAM-cAMP; values given as bins; read-out: PDE1b (pIC50) (converted)

Row | Compound | IC50 [µM]
10 | Cc1oc2ncnc(NC3(C)CC3)c2c1C(=O)N(C)C [Example 81, N,N,6-Trimethyl-4-[(1-methylcyclopropyl)amino]furo[2,3-d]pyrimidine-5-carboxamide] | 0.1 to 1
11 | Cc1ncc(NC(=O)c2c(C)oc3ncnc(NC4(C)CC4)c23)nc1C [Example 441, N-(5,6-Dimethylpyrazin-2-yl)-6-methyl-4-[(1-methylcyclopropyl)amino]furo[2,3-d]pyrimidine-5-carboxamide] | 0.01 to 0.1
12 | Cc1oc2ncnc(NC3(C)CC3)c2c1C(=O)NC1(C2CCOCC2)CC1 [Example 300, 6-Methyl-4-[(1-methylcyclopropyl)amino]-N-[1-(oxan-4-yl)cyclopropyl]furo[2,3-d]pyrimidine-5-carboxamide] | 0.01 to 0.1
13 | Cc1oc2ncnc(NC3(C)CC3)c2c1C(=O)NCc1ccnc(N2CCOCC2)c1 [Example 675, 6-Methyl-4-[(1-methylcyclopropyl)amino]-N-{[2-(morpholin-4-yl)pyridin-4-yl]methyl}furo[2,3-d]pyrimidine-5-carboxamide] | 0.01 to 0.1
14 | Cc1oc2ncnc(NC3(C)CC3)c2c1C(=O)NCc1ccncc1F [Example 163, N-[(3-Fluoropyridin-4-yl)methyl]-6-methyl-4-[(1-methylcyclopropyl)amino]furo[2,3-d]pyrimidine-5-carboxamide] | 0.01 to 0.1
15 | Cc1oc2ncnc(NC3(C)CC3)c2c1C(=O)N1CCc2nc(C3CCOCC3)ccc2C1 [Example 290, 6-Methyl-N-(1-methylcyclopropyl)-5-[2-(oxan-4-yl)-5,6,7,8-tetrahydro-1,6-naphthyridine-6-carbonyl]furo[2,3-d]pyrimidin-4-amine] | 0.01 to 0.1
16 | Cc1oc2ncnc(NC3(C)CC3)c2c1C(=O)N1C[C@H]2CC[C@@H](C1)O2 [Example 499, 6-Methyl-N-(1-methylcyclopropyl)-5-[(1R,5S)-8-oxa-3-azabicyclo[3.2.1]octane-3-carbonyl]furo[2,3-d]pyrimidin-4-amine] | 0.1 to 1
17 | Cc1oc2ncnc(NC3(C)CC3)c2c1C(=O)n1cc(-c2ccccc2)cn1 [Example 405, 6-Methyl-N-(1-methylcyclopropyl)-5-(4-phenyl-1H-pyrazole-1-carbonyl)furo[2,3-d]pyrimidin-4-amine] | 0.1 to 1
18 | Cc1oc2ncnc(NC3(C)CC3)c2c1C(=O)NC1(C)CCOC1 (stereo not shown) [Example 107, 6-Methyl-4-[(1-methylcyclopropyl)amino]-N-(3-methyloxolan-3-yl)furo[2,3-d]pyrimidine-5-carboxamide] | 0.01 to 0.1
19 | Cc1oc2ncnc(NC3(C)CC3)c2c1C(=O)N1CCc2nnc(Cl)cc2C1 [Example 288, 5-{3-Chloro-5H,6H,7H,8H-pyrido[4,3-c]pyridazine-6-carbonyl}-6-methyl-N-(1-methylcyclopropyl)furo[2,3-d]pyrimidin-4-amine] | 0.1 to 1
20 | COc1ncc2c(n1)CN(C(=O)c1c(C)oc3ncnc(NC4(C)CC4)c13)CC2 [Example 699, 5-{2-Methoxy-5H,6H,7H,8H-pyrido[3,4-d]pyrimidine-7-carbonyl}-6-methyl-N-(1-methylcyclopropyl)furo[2,3-d]pyrimidin-4-amine] | 0.1 to 1
21 | Cc1oc2ncnc(NC3(C)CC3)c2c1C(=O)Nc1cnc(N2C[C@@H](C)O[C@@H](C)C2)nc1 [Example 759, N-{2-[(2R,6S)-2,6-Dimethylmorpholin-4-yl]pyrimidin-5-yl}-6-methyl-4-[(1-methylcyclopropyl)amino]furo[2,3-d]pyrimidine-5-carboxamide] | 0.1 to 1
22 | Cc1oc2ncnc(NC3(C)CC3)c2c1C(=O)N(C)Cc1cc2cc(F)ccc2[nH]1 [Example 569, N-[(5-Fluoro-1H-indol-2-yl)methyl]-N,6-dimethyl-4-[(1-methylcyclopropyl)amino]furo[2,3-d]pyrimidine-5-carboxamide] | 0.01 to 0.1
23 | Cc1oc2ncnc(NC3(C)CC3)c2c1C(=O)NC1CCOC(C)(C)C1 (stereo not shown) [Example 110, N-(2,2-Dimethyloxan-4-yl)-6-methyl-4-[(1-methylcyclopropyl)amino]furo[2,3-d]pyrimidine-5-carboxamide] | 0.01 to 0.1
24 | COc1ccc(CCNC(=O)c2c(C)oc3ncnc(NC4(C)CC4)c23)cc1OC [Example 545, N-[2-(3,4-Dimethoxyphenyl)ethyl]-6-methyl-4-[(1-methylcyclopropyl)amino]furo[2,3-d]pyrimidine-5-carboxamide] | 0.01 to 0.1
25 | Cc1oc2ncnc(NC3(C)CC3)c2c1C(=O)N1CCc2c(ncnc2NC2(C)CC2)C1 [Example 796, 6-Methyl-N-(1-methylcyclopropyl)-5-{4-[(1-methylcyclopropyl)amino]-5H,6H,7H,8H-pyrido[3,4-d]pyrimidine-7-carbonyl}furo[2,3-d]pyrimidin-4-amine] | 0.01 to 0.1

Source: patent publication US20250145633A1, “SUBSTITUTED FURANOPYRIMIDINE COMPOUNDS AS PDE1 INHIBITORS” (Dart NeuroScience, LLC, priority 2017, published 2025)
